Measured values taken from PMC8632988, “Inhibition of SYK and cSrc kinases can protect bone and cartilage in preclinical models of osteoarthritis and rheumatoid arthritis” (Scientific Reports, 2021).
Values joined by “and” are separate entries in the source; they are usually repeats but may differ in a detail not shown here. Equal values may be shown once. Read-outs that look alike come from different tables or passages of the source.

Experiment: Pharmacokinetics after single oral administration to rats
Format: in vivo, rat
Conditions: for AUC(0-inf) / Cmax / Tmax / AUC(0-t) / half-life: po; for half-life: read-out: Terminal t1/2, Mean (converted); for AUC: read-out: AUC48
Method: Experiments were performed at ChemPartner, Shanghai, China and approved by Institutional Ethics Committee (IEC) of ChemPartner. Male Wistar 10–12 weeks old rats with body weights of 185–220 g and male New Zealand rabbits with body weights of 2.0–2.3 kg were purchased from Shanghai SLAC Laboratory Animal Co., Ltd. MT-SYK-03 was administered to the three groups of rats (six rats per group) via oral gavage at 10 mL/kg concentration, and in rabbits 5 mL/kg concentration. Blood samples were kept on ice and centrifuged (2000 g, 4 ℃, 5 min) within 15 min post sampling.

[1] = male, Wistar, rat, plasma, rats, single oral 30 mg/kg
[2] = male, Wistar, rat, plasma, rats, single oral 100 mg/kg
[3] = male, Wistar, rat, plasma, rats, single oral 200 mg/kg

Q: For `COc1cc(Nc2ncnc(Nc3cc4c(cn3)NC(=O)C(C)(C)O4)n2)cc(OC)c1OC` [MT-SYK-03], which concentration at 2 h (male, Wistar, rat, plasma, oral, 200 mg/kg, Table S8, 200 mg/kg PO, male Wistar rats, individual Rat#13-18, read-out: Plasma concentration) is on record?
A: The concentration at 2 h was 1180 ng/mL.

Q: And the concentration at 2 h (male, Wistar, rat, plasma, oral, 200 mg/kg, Table S8, 200 mg/kg PO, male Wistar rats, mean of Rat#13-18, read-out: Plasma concentration, Mean)?
A: The concentration at 2 h was 1040 ng/mL.

Q: What about the concentration at 4 h (male, Wistar, rat, plasma, oral, 200 mg/kg, Table S8, 200 mg/kg PO, male Wistar rats, 4 h, mean of Rat#13-18) of the same molecule?
A: Its concentration at 4 h is 725 ng/mL.

Q: What about the concentration at 8 h (male, Wistar, rat, plasma, oral, 200 mg/kg, Table S8, 200 mg/kg PO, male Wistar rats, 8 h, mean of Rat#13-18) of the same molecule?
A: Its concentration at 8 h is 206 ng/mL.

Q: And the concentration at 24 h (male, Wistar, rat, plasma, oral, 200 mg/kg, Table S8, 200 mg/kg PO, male Wistar rats, 24 h, mean of Rat#13-18)?
A: The concentration at 24 h was 4.99 ng/mL.

Q: And the concentration at 48 h (male, Wistar, rat, plasma, oral, 200 mg/kg, Table S8, 200 mg/kg PO, male Wistar rats, 48 h, mean of Rat#13-18, read-out: Plasma concentration, Mean)?
A: Its concentration at 48 h is 5.44 ng/mL.

Q: And the AUC(0-inf) (male, Wistar, rat, plasma, 30 mg/kg, rats, single oral 30 mg/kg, read-out: AUCinf)?
A: The AUC(0-inf) was 2420 ± 945 ng·h/mL.

Q: And the Cmax (male, Wistar, rat, plasma, 30 mg/kg, rats, single oral 30 mg/kg, read-out: Cmax)?
A: The Cmax was 416 ± 114 ng/mL.

Q: And the Tmax (male, Wistar, rat, plasma, 30 mg/kg, rats, single oral 30 mg/kg, read-out: Tmax)?
A: The Tmax was 1.5 ± 0.548 h.

Q: What about the Tmax (male, Wistar, rat, plasma, 100 mg/kg, Table S6, 100 mg/kg PO, male Wistar rats, plasma, individual Rat#1-6, read-out: Tmax) of the same molecule?
A: The Tmax was 2 h.

Q: What about the AUC(0-inf) (male, Wistar, rat, plasma, 100 mg/kg, Table S6, 100 mg/kg PO, male Wistar rats, plasma, mean of Rat#1-6, read-out: AUCINF, Mean) of the same molecule?
A: Its AUC(0-inf) is 2420 ng·h/mL.

Q: What about the AUC(0-t) (male, Wistar, rat, plasma, 100 mg/kg, Table S6, 100 mg/kg PO, male Wistar rats, plasma, mean of Rat#1-6, read-out: AUClast, Mean) of the same molecule?
A: The AUC(0-t) was 2340 ng·h/mL.

Q: What about the Cmax (male, Wistar, rat, plasma, 100 mg/kg, Table S6, 100 mg/kg PO, male Wistar rats, plasma, mean of Rat#1-6, read-out: Cmax, Mean) of the same molecule?
A: The Cmax was 416 ng/mL.

Q: What about the half-life (male, Wistar, rat, plasma, 100 mg/kg, Table S6, 100 mg/kg PO, male Wistar rats, plasma, mean of Rat#1-6) of the same molecule?
A: Its half-life is 5.53 h.

Q: And the Tmax (male, Wistar, rat, plasma, 100 mg/kg, Table S6, 100 mg/kg PO, male Wistar rats, plasma, mean of Rat#1-6, read-out: Tmax, Mean)?
A: Its Tmax is 1.5 h.

Q: And the AUC(0-inf) (male, Wistar, rat, plasma, 100 mg/kg, Table S7, 100 mg/kg PO, male Wistar rats, plasma, individual Rat#7-12, read-out: AUCINF)?
A: The AUC(0-inf) was 4250 ng·h/mL.

Q: And the AUC(0-t) (male, Wistar, rat, plasma, 100 mg/kg, Table S7, 100 mg/kg PO, male Wistar rats, plasma, individual Rat#7-12, read-out: AUClast)?
A: The AUC(0-t) was 4240 ng·h/mL.

Q: What about the Cmax (male, Wistar, rat, plasma, 100 mg/kg, Table S7, 100 mg/kg PO, male Wistar rats, plasma, individual Rat#7-12, read-out: Cmax) of the same molecule?
A: Its Cmax is 822 ng/mL.

Q: What about the Tmax (male, Wistar, rat, plasma, 100 mg/kg, Table S7, 100 mg/kg PO, male Wistar rats, plasma, individual Rat#7-12, read-out: Tmax) of the same molecule?
A: Its Tmax is 1 h.

Q: What about the AUC(0-inf) (male, Wistar, rat, plasma, 100 mg/kg, Table S7, 100 mg/kg PO, male Wistar rats, plasma, mean of Rat#7-12, read-out: AUCINF, Mean) of the same molecule?
A: The AUC(0-inf) was 4270 ng·h/mL.

Q: And the AUC(0-t) (male, Wistar, rat, plasma, 100 mg/kg, Table S7, 100 mg/kg PO, male Wistar rats, plasma, mean of Rat#7-12, read-out: AUClast, Mean)?
A: The AUC(0-t) was 4260 ng·h/mL.

Q: And the Cmax (male, Wistar, rat, plasma, 100 mg/kg, Table S7, 100 mg/kg PO, male Wistar rats, plasma, mean of Rat#7-12, read-out: Cmax, Mean)?
A: Its Cmax is 864 ng/mL.

Q: What about the half-life (male, Wistar, rat, plasma, 100 mg/kg, Table S7, 100 mg/kg PO, male Wistar rats, plasma, mean of Rat#7-12) of the same molecule?
A: The half-life was 4.06 h.

Q: And the Tmax (male, Wistar, rat, plasma, 100 mg/kg, Table S7, 100 mg/kg PO, male Wistar rats, plasma, mean of Rat#7-12, read-out: Tmax, Mean)?
A: The Tmax was 1 h.

Q: What about the AUC(0-inf) (male, Wistar, rat, plasma, 100 mg/kg, rats, single oral 100 mg/kg, read-out: AUCinf) of the same molecule?
A: The AUC(0-inf) was 4270 ± 608 ng·h/mL.

Q: And the Cmax (male, Wistar, rat, plasma, 100 mg/kg, rats, single oral 100 mg/kg, read-out: Cmax)?
A: The Cmax was 864 ng/mL and 1.42 µM.

Q: And the Tmax (male, Wistar, rat, plasma, 100 mg/kg, rats, single oral 100 mg/kg, read-out: Tmax)?
A: The Tmax was 1 h.

Q: What about the AUC(0-inf) (male, Wistar, rat, plasma, 200 mg/kg, Table S8, 200 mg/kg PO, male Wistar rats, plasma, individual Rat#13-18, read-out: AUCINF) of the same molecule?
A: Its AUC(0-inf) is 7500 ng·h/mL.

Q: And the AUC(0-t) (male, Wistar, rat, plasma, 200 mg/kg, Table S8, 200 mg/kg PO, male Wistar rats, plasma, individual Rat#13-18, read-out: AUClast)?
A: Its AUC(0-t) is 7480 ng·h/mL.

Q: And the Cmax (male, Wistar, rat, plasma, 200 mg/kg, Table S8, 200 mg/kg PO, male Wistar rats, plasma, individual Rat#13-18, read-out: Cmax)?
A: Its Cmax is 1180 ng/mL.

Q: And the Tmax (male, Wistar, rat, plasma, 200 mg/kg, Table S8, 200 mg/kg PO, male Wistar rats, plasma, individual Rat#13-18, read-out: Tmax)?
A: Its Tmax is 2 h.

Q: What about the AUC(0-inf) (male, Wistar, rat, plasma, 200 mg/kg, Table S8, 200 mg/kg PO, male Wistar rats, plasma, mean of Rat#13-18, read-out: AUCINF, Mean) of the same molecule?
A: The AUC(0-inf) was 7320 ng·h/mL.

Q: And the AUC(0-t) (male, Wistar, rat, plasma, 200 mg/kg, Table S8, 200 mg/kg PO, male Wistar rats, plasma, mean of Rat#13-18, read-out: AUClast, Mean)?
A: The AUC(0-t) was 7270 ng·h/mL.

Q: What about the Cmax (male, Wistar, rat, plasma, 200 mg/kg, Table S8, 200 mg/kg PO, male Wistar rats, plasma, mean of Rat#13-18, read-out: Cmax, Mean) of the same molecule?
A: The Cmax was 1280 ng/mL.

Q: And the half-life (male, Wistar, rat, plasma, 200 mg/kg, Table S8, 200 mg/kg PO, male Wistar rats, plasma, mean of Rat#13-18)?
A: Its half-life is 5.08 h.

Q: What about the Tmax (male, Wistar, rat, plasma, 200 mg/kg, Table S8, 200 mg/kg PO, male Wistar rats, plasma, mean of Rat#13-18, read-out: Tmax, Mean) of the same molecule?
A: The Tmax was 1.33 h.

Q: And the AUC(0-inf) (male, Wistar, rat, plasma, 200 mg/kg, rats, single oral 200 mg/kg, read-out: AUCinf)?
A: Its AUC(0-inf) is 7320 ± 1460 ng·h/mL.

Q: What about the Cmax (male, Wistar, rat, plasma, 200 mg/kg, rats, single oral 200 mg/kg, read-out: Cmax) of the same molecule?
A: Its Cmax is 1280 ng/mL and 2.1 µM.

Q: What about the Tmax (male, Wistar, rat, plasma, 200 mg/kg, rats, single oral 200 mg/kg, read-out: Tmax) of the same molecule?
A: The Tmax was 1.33 ± 0.516 h.

Q: What about the k el [1] of the same molecule?
A: Its k el is 4.44e-05 s⁻¹.

Q: And the AUC [1]?
A: The AUC was 2340 ± 979 ng·h/mL.

Q: What about the k el [2] of the same molecule?
A: The k el was 5.28e-05 s⁻¹.

Q: What about the AUC [2] of the same molecule?
A: The AUC was 4260 ± 621 ng·h/mL.

Q: What about the k el [3] of the same molecule?
A: Its k el is 4.72e-05 s⁻¹.

Q: What about the AUC [3] of the same molecule?
A: Its AUC is 7270 ± 1490 ng·h/mL.

Q: And the “Average plasma concentration after administration in rats” value (rats, PO)?
A: Its value is 200 to 700 nM.

Q: What about the MRT24 (rats, single oral 30 mg/kg) of the same molecule?
A: Its MRT24 is 4.26 ± 0.57 h.

Q: What about the τ1/2 (rats, single oral 30 mg/kg) of the same molecule?
A: Its τ1/2 is 5.53 ± 2.38 h.

Q: And the MRT24 (rats, single oral 100 mg/kg)?
A: The MRT24 was 4.12 ± 0.56 h.

Q: What about the τ1/2 (rats, single oral 100 mg/kg) of the same molecule?
A: The τ1/2 was 4.06 ± 1.49 h.

Q: What about the MRT24 (rats, single oral 200 mg/kg) of the same molecule?
A: Its MRT24 is 4.89 ± 1.63 h.

Q: And the τ1/2 (rats, single oral 200 mg/kg)?
A: Its τ1/2 is 5.08 ± 2.39 h.
